Each compound was assayed against T1, cGMP-PDE prepared from porcine aorta (Sus scrofa, UniProt A0A287B475) (assay: Enzyme inhibitory activity using cGMP-PDE prepared from porcine aorta). Details: CaM-independent cGMP-PDE fractions from porcine aorta; 1 μM cGMP substrate, 1 mM EGTA, DMSO 4% or below.
T1 construct: The enzyme activity of CGMP-PDE prepared from porcine aorta was determined; from tissue; host or cells: porcine aorta, 100,000×g supernatant, DEAE-Toyopearl 650S fractions
Type: biochemical
Procedure: Enzyme Inhibitory activity using cGMP-PDE prepared from porcine aorta
The enzyme activity of CGMP-PDE prepared from porcine aorta was determined according to the method of Thompson et al. This determination was conducted in the presence of 1 mM EGTA by the use of 1 μM cGMP as the substrate. Each compound according to the present invention was dissolved in DMSO and added to the reaction system to determine the inhibitory activity thereof. The final concentration of DMSO in the reaction system was adjusted to 4% or below.
The cGMP-PDE was prepared as follows:
Porcine aorta was cut into fine pieces, followed by the addition of 10 times by volume as much buffer A (20 mM Tris/HCl, 2 mM Mg acetate, 1 mM dithiothreitol, 5 mM EDTA, 1400TIU/1 aprotinin, 10 mg/1 leupeptin, 1 mM benzamidine, 0.2 mM PMSF, pH7.5). The obtained mixture was homogenized and centrifuged at 100,000×g for one hour. The obtained supernatant was placed on a column of DEAE-Toyopearl 650S (a product of Tosoh, Tokyo, Japan), followed by the washing of the column with buffer B (50 mM Tris/HCl, 0.1 mM EGTA, 2 mM Mg acetate, 1 mM Dithiothreitol, 0.2 mM PMSF, pH7.5). The resulting column was subjected to gradient elution with 0.05 to 0.4M sodium chloride to obtain CaM-independent cGMP-PDE fractions.
For `O=C(Nc1ccc(Cl)cc1C(=O)NCc1ccc2c(c1)OCO2)c1ccncc1` [Example 9, 5-Chloro-N-(3,4-methylenedioxybenzyl)-2-(isonicotinoylamino)benzamide], the IC50 was 28.8 nM.
`O=C(NCc1ccc2c(c1)OCO2)c1cc(Cl)ccc1NC(=O)C1CCCCC1` [Example 19, 5-Chloro-2-[(cyclohexanecarbonyl)amino]-N-(3,4-methylenedioxybenzyl)benzamide] gave an IC50 of 16.6 nM.
`O=C(NCc1ccc2c(c1)OCO2)c1cc(Cl)ccc1NCc1ccncc1` [Example 33, 5-Chloro-N-(3,4-methylenedioxybenzyl)-2-(4-picolyl)aminobenzamide] was tested, and the IC50 was 20.5 nM.
`O=C(NCc1ccc2c(c1)OCO2)c1cc(Cl)ccc1NC(=O)N1CCC(C(=O)O)CC1` [Example 38, 1-[[4-Chloro-2-[(3,4-methylenedioxybenzyl)carbamoyl]phenyl]carbamoyl]piperidine-4-carboxylic acid] was tested, and the IC50 was 6.7 nM.
`O=C(NCc1ccc2c(c1)OCO2)c1cc(Cl)ccc1NC(=O)[C@H]1CC[C@H](C(=O)O)CC1` [Example 39, 2-(trans-4-Carboxycyclohexanecarbonyl)amino-5-chloro-N-(3,4-methylenedioxybenzyl)benzamide] showed an IC50 of 3.2 nM.
`O=C(O)c1ccc(C(=O)Nc2ccc(Cl)cc2C(=O)NCc2ccc3c(c2)OCO3)cc1` [Example 41, 2-(4-Carboxybenzoyl)amino-5-chloro-N-(3,4-methylenedioxybenzyl)benzamide] was tested, and the IC50 was 1.4 nM.
`COc1ccc(CNC(=O)c2cc(Cl)ccc2NC(=O)N2CCC(C(=O)O)CC2)cc1Cl` [Example 43] gave an IC50 of 0.9 nM.
With `O=C(O)/C=C/C(=O)Nc1ccc(Cl)cc1C(=O)NCc1ccc2c(c1)OCO2` [Example 44, 2-(3-Carboxyacryoyl)amino-5-chloro-N-(3,4-methylenedioxybenzyl)benzamide] the IC50 was 79.8 nM.
In the case of `O=C(NCc1ccc2c(c1)OCO2)c1cc(Br)ccc1NC(=O)[C@H]1CC[C@H](C(=O)O)CC1` [Example 45, 5-Bromo-2-(trans-4-carboxycyclohexanecarbonyl)amino-N-(3,4-methylenedioxybenzyl)benzamide], the IC50 is reported as 0.7 nM.
`O=C(NCc1ccc2c(c1)OCO2)c1cc(Cl)ccc1NC[C@H]1CC[C@H](C(=O)O)CC1` [Example 47] was tested, and the IC50 was 5.3 nM.
For `COc1ccc(CNC(=O)c2cc(C#N)ccc2NC(=O)N2CCC(O)CC2)cc1Cl` [Example 74, 1-[[2-[(3-Chloro-4-methoxybenzyl)carbamoyl]-4-cyanophenyl]carbamoyl]-4-hydroxypiperidine], the IC50 was 2.4 nM.
For `COc1ccc(CNC(=O)c2cc(C#N)ccc2NC(=O)c2ccncc2)cc1Cl` [Example 80, N-(3-Chloro-4-methoxybenzyl)-5-cyano-2-(isonicotinoylamino)benzamide], the IC50 was 11.9 nM.
Work on `COc1ccc(CNC(=O)c2cc(Br)ccc2NC(=O)c2ccncc2)cc1Cl` [Example 81] yielded an IC50 of 14.5 nM.
For `COc1ccc(CNC(=O)c2cc(C#N)c(OC)cc2NC(=O)c2ccncc2)cc1Cl` [Example 83, N-(3-Chloro-4-methoxybenzyl)-5-cyano-2-(isonicotinoylamino)-4-methoxybenzamide], the IC50 was 12.6 nM.
For `O=C(Nc1ccc(Br)cc1C(=O)NCc1ccc2c(c1)OCO2)c1ccncc1` [Example 85, 5-Bromo-2-(isonicotinoylamino)-N-(3,4-methylenedioxybenzyl)benzamide], the IC50 was 21.7 nM.
In the case of `COc1ccc(CNC(=O)c2cc(C#N)ccc2NC(=O)[C@H]2CC[C@H](O)CC2)cc1Cl` [Example 109, N-(3-Chloro-4-methoxybenzyl)-5-cyano-2-[(trans-4-hydroxycyclohexanecarbonyl)amino]benzamide], the IC50 is reported as 4.4 nM.
`COc1ccc(CNC(=O)c2cc(C#N)ccc2NC(=O)[C@H]2CC[C@H](C(=O)O)CC2)cc1Cl` [Example 110, 2-[(trans-4-Carboxycyclohexanecarbonyl)amino]-N-(3-chloro-4-methoxybenzyl)-5-cyanobenzamide] was tested, and the IC50 was 0.7 nM.
Work on `COc1ccc(CNC(=O)c2cc(Br)ccc2NC(=O)N2CCC(C(=O)O)CC2)cc1Cl` [Example 111, 1-[[4-Bromo-2-[(3-chloro-4-methoxybenzyl)carbamoyl]phenyl]carbamoyl]piperidine-4-carboxylic acid] yielded an IC50 of 2 nM.
Work on `COc1ccc(CNC(=O)c2cc(Cl)ccc2NC(=O)[C@H]2CC[C@H](C(=O)O)CC2)cc1Cl` [Example 112, 2-[(trans-4-Carboxycyclohexanecarbonyl)amino]-5-chloro-N-(3-chloro-4-methoxybenzyl)benzamide] yielded an IC50 of 5.3 nM.
Compound `COc1ccc(CNC(=O)c2cc(Br)ccc2NC(=O)[C@H]2CC[C@H](C(=O)O)CC2)cc1Cl` [Example 113, 5-Bromo-2-[(trans-4-carboxycyclohexanecarbonyl)amino]-N-(3-chloro-4-methoxybenzyl)benzamide] has an IC50 of 0.4 nM.
`COc1ccc(CNC(=O)c2cc([N+](=O)[O-])ccc2NC(=O)[C@H]2CC[C@H](C(=O)O)CC2)cc1Cl` [Example 114, 2-[(trans-4-Carboxycyclohexanecarbonyl)amino]-N-(3-chloro-4-methoxybenzyl)-5-nitrobenzamide] gave an IC50 of 1.7 nM.
`COc1ccc(CNC(=O)c2cc(Br)c(OC)cc2NC(=O)[C@H]2CC[C@H](C(=O)O)CC2)cc1Cl` [Example 115, 5-Bromo-2-[(trans-4-carboxycyclohexanecarbonyl)amino]-N-(8-chloro-4-methoxybenzyl)-4-methoxybenzamide] showed an IC50 of 24.8 nM.
In the case of `COc1ccc(CNC(=O)c2cc(C#N)c(OC)cc2NC(=O)[C@H]2CC[C@H](C(=O)O)CC2)cc1Cl` [Example 116], the IC50 is reported as 2.9 nM.
`COc1ccc(CNC(=O)c2cc(S(=O)(=O)N(C)C)ccc2NC(=O)[C@H]2CC[C@H](C(=O)O)CC2)cc1Cl` [Example 117, 2-[(trans-4-Carboxycyclohexanecarbonyl)amino]-N-(3-chloro-4-methoxybenzyl)-5-dimethylsulfamoylbenzamide] was tested, and the IC50 was 11.5 nM.
Work on `COc1ccc(CNC(=O)c2cc(Cl)ccc2NC(=O)[C@H]2CC[C@H](C(=O)O)CC2)cc1C#N` [Example 120, 2-[(trans-4-Carboxycyclohexanecarbonyl)amino]-5-chloro-N-(3-cyano-4-methoxybenzyl)benzamide] yielded an IC50 of 21.5 nM.
`COc1cc(CNC(=O)c2cc(Cl)ccc2NC(=O)[C@H]2CC[C@H](C(=O)O)CC2)ccc1Cl` [Example 121, 2-[(trans-4-Carboxycyclohexanecarbonyl)amino]-5-chloro-N-(4-chloro-3-methoxybenzyl)benzamide] was tested, and the IC50 was 7.7 nM.
In the case of `O=C(NCc1ccc2c(c1)OCO2)c1cc(Br)ccc1NC(=O)N1CCC(C(=O)O)CC1` [Example 122], the IC50 is reported as 5 nM.
Compound `O=C1c2c(NC(=O)[C@H]3CC[C@H](C(=O)O)CC3)ccc(Br)c2CN1Cc1ccc2c(c1)OCO2` [Example 123, 4-Bromo-7-[(trans-4-carboxycyclohexanecarbonyl)amino]-N-(3,4-methylenedioxybenzyl)isoindoline-1-one] has an IC50 of 6.1 nM.
For `O=C(NCc1ccc2c(c1)OCO2)c1cc(OC(F)(F)F)ccc1NC(=O)[C@H]1CC[C@H](C(=O)O)CC1` [Example 125, 2-[(trans-4-Carboxycyclohexanecarbonyl)amino]-N-(3,4-methylenedioxybenzyl)-5-trifluoromethoxybenzamide], the IC50 was 19.2 nM.
For `O=C(NCc1ccc2c(c1)OCO2)c1cc(-n2cccn2)ccc1NC(=O)[C@H]1CC[C@H](C(=O)O)CC1` [Example 126, 2-[(trans-4-Carboxycyclohexanecarbonyl)amino]-N-(3,4-methylenedioxybenzyl)-5-(1-pyrazolyl)benzamide], the IC50 was 2.9 nM.
`COc1cc(NC(=O)[C@H]2CC[C@H](C(=O)O)CC2)c(C(=O)NCc2ccc3c(c2)OCO3)cc1Br` [Example 129, 5-Bromo-2-[(trans-4-carboxycyclohexanecarbonyl)amino]-4-methoxy-N-(3,4-methylenedioxybenzyl)benzamide] was tested, and the IC50 was 36.8 nM.
Compound `COc1ccc(CNC(=O)c2cc(C#N)ccc2NC(=O)[C@@H]2CCC(=O)O2)cc1Cl` [Example 136, N-(3-Chloro-4-methoxybenzyl)-5-cyano-2-[((S)-5-oxo-2-tetrahydrofurancarbonyl)amino]benzamide] has an IC50 of 18.1 nM.
In the case of `COc1ccc(CNC(=O)c2cc(Br)c(N)cc2NC(=O)[C@H]2CC[C@H](C(=O)O)CC2)cc1Cl` [Example 141, 4-Amino-5-bromo-2-[(trans-4-carboxycyclohexanecarbonyl)amino]-N-(3-chloro-4-methoxybenzyl)benzamide], the IC50 is reported as 7.2 nM.
